Test results: US20110237520A1, “Anticancer Compounds” (priority 2008, published 2011)
pEC50, pIC50: −log10 of the molar value. Read-outs that look alike come from different tables or passages of the source. Numbered stars: 1 amine (or outer) side, 2 acyl side, 3 side chain; on linkers, the order of the positions; unused ones are H or OH. Bridge positions count the residues as written; N and C are the ends. Square brackets hold non-standard residues; d marks the D form. Peptide text beside a SMILES is read from it. * marks the point of attachment. ξ: configuration not given here. dNle(3R-OH,4R,5-Me2) = CC(C)[C@@H](C)[C@@H](O[*:3])[C@@H](N[*:1])C(=O)[*:2]; γ4hArg(2R,3R-(OH)2) = N=C(N)NCCC[C@H](N[*:1])[C@@H](O)[C@@H](O)C(=O)[*:2]; Heptanoyl(3R-OH,2R,4R,6-Me3) = CC(C)C[C@@H](C)[C@@H](O)[C@@H](C)C(=O)*; X5 = CO[C@H](c1ccc(O)cc1)C(N[*:1])C(=O)C[C@H](CC(N)=O)C(=O)[*:2]; Gln(3S,4R-Me2) = C[C@H]([C@H](N)C(=O)O)[C@@H](C)C(N)=O; X1 = NC(=O)CC[C@H](N[*:1])[C@@H](O)[C@@H](O)C(=O)[*:2]; X7 = O=C(O)CC[C@H](N[*:1])[C@@H](O)[C@@H](O)C(=O)[*:2]; ξThr(3R)(O-yl) = C[C@@H](O[*:3])C(N[*:1])C(=O)[*:2]; X6 = CC[C@@H](C)C[C@@H](C)[C@@H](O)[C@@H](C)C(=O)*; X4 = C[C@H](C(N[*:1])C(=O)[*:2])[C@@H](C)C(N)=O; Asn(3S-OEt) = CCO[C@H](C(N)=O)[C@H](N)C(=O)O; dAsp(3S-OH) = N[C@@H](C(=O)O)[C@H](O)C(=O)O; ξGln(3,4-Me2) = CC(C(N)=O)C(C)C(N)C(=O)O; X3 = CC(O)C(N[*:1])C(O)C(O)C(=O)[*:2]; ξAsn(3ξ-OMe) = COC(C(N)=O)C(N)C(=O)O; d(aThr) = C[C@@H](O)[C@@H](N)C(=O)O; X2 = CC(C)CC(C)CC(C)C(O)C(C)C(=O)*; NMeQ = CN[CH](CCC(N)=O)C(=O)O; ξNle(4ξ-Me) = CCC(C)CC(N)C(=O)O; ξThr(3R) = C[C@@H](O)C(N)C(=O)O; dOrn = NCCC[C@@H](N)C(=O)O; Pip = O=C(O)[CH]1CCCCN1; Orn = NCCC[CH](N)C(=O)O; ξL = CC(C)CC(N)C(=O)O

What was measured:
HIV-1RF [1] = details: in vitro; cited from earlier work
[2] = tested on: panel of human cancer cell lines; details: mean over a panel of human cancer cell lines; cited from earlier work
HIV-1RF [3] = details: human T-cell line CEM-SS infected with HIV-1RF, 6 day incubation; read-out: EC50, inhibition of the cytopathic effect of HIV-1 infection; cited from earlier work
MDA-MB-231 = test: SRB colorimetric cytotoxicity assay, MDA-MB-231; type: cell-based, human; details: MDA-MB-231, 72 hours treatment; for GI50: 50% cell growth inhibition; for TGI: total cell growth inhibition
Description: (§1) The aim of this assay is to evaluate the in vitro cytostatic (ability to delay or arrest tumor cell growth) or cytotoxic (ability to kill tumor cells) activity of the samples being tested.
(§2) A colorimetric assay, using sulforhodamine B (SRB) reaction has been adapted to provide a quantitative measurement of cell growth and viability (following the technique described by Skehan et al. J. Natl. Cancer Inst. 1990, 82, 1107-1112).
(§3) This form of assay employs SBS-standard 96-well cell culture microplates (Faircloth et al. Methods in Cell Science, 1988, 11(4), 201-205; Mosmann et al, Journal of Immunological Methods, 1983, 65(1-2), 55-63). All the cell lines used in this study were obtained from the American Type Culture Collection (ATCC) and derive from different types of human cancer.
(§4) Cells were maintained in Dulbecco's Modified Eagle Medium (DMEM) supplemented with 10% Fetal Bovine Serum (FBS), 2 mM L-glutamine, 100 U/mL penicillin and 100 U/mL streptomycin at 37° C., 5% CO2 and 98% humidity. For the experiments, cells were harvested from subconfluent cultures using trypsinization and resuspended in fresh medium before counting and plating.
(§5) Cells were seeded in 96 well microtiter plates, at 5×10^3 cells per well in aliquots of 150 μL, and allowed to attach to the plate surface for 18 hours (overnight) in drug free medium. After that, one control (untreated) plate of each cell line was fixed (as described below) and used for time zero reference value. Culture plates were then treated with test compounds (50 μL aliquots of 4× stock solutions in complete culture medium plus 4% DMSO) using ten serial dilutions (concentrations ranging from 10 to 0.00262 μg/mL) and triplicate cultures (1% final concentration of DMSO). After 72 hours treatment, the antitumor effect was measured by using the SRB methodology: Briefly, cells were washed twice with PBS, fixed for 15 min in 1% glutaraldehyde solution at room temperature, rinsed twice in PBS, and stained in 0.4% SRB solution for 30 min at room temperature. Cells were then rinsed several times with 1% acetic acid solution and air-dried at room temperature. SRB was then extracted in 10 mM trizma base solution and the absorbance measured in an automated spectrophotometric plate reader at 490 nm. Effects on cell growth and survival were estimated by applying the NCI algorithm (Boyd M R and Paull K D. Drug Dev. Res. 1995, 34, 91-104).
(§6) Using the mean±SD of triplicate cultures, a dose-response curve was automatically generated using nonlinear regression analysis. Three reference parameters were calculated (NCI algorithm) by automatic interpolation: GI50=compound concentration that produces 50% cell growth inhibition, as compared to control cultures; TGI=total cell growth inhibition (cytostatic effect), as compared to control cultures, and LC50=compound concentration that produces 50% net cell killing (cytotoxic effect).

HT29 = test: SRB colorimetric cytotoxicity assay, HT29; type: cell-based, human; details: for GI50: 50% cell growth inhibition; for CC50: 50% net cell killing, read-out: LC50 (the source's name); for TGI: total cell growth inhibition
Description: as §1, §2, §3, §4, §5, §6

A549 = test: SRB colorimetric cytotoxicity assay, A549; type: cell-based, human; details: A549, 72 hours treatment; for GI50: 50% cell growth inhibition; for CC50: 50% net cell killing, read-out: LC50 (the source's name); for TGI: total cell growth inhibition
Description: as §1, §2, §3, §4, §5, §6

HIV-1 = details: cell-based XTT assay; read-out: IC50, cytoprotective activity against HIV-1 infection; cited from earlier work
[4] = Homo sapiens, HT-29, HT29, 72 hours treatment

Compound: papuamide A
- EC50, inhibition of infection of human T-lymphoblastoid cells by HIV-1RF (HIV-1RF [1]): approximately 4 ng/mL
- mean IC50, cytotoxicity [2]: 0.075 mg/L

Compound: papuamide B
- EC50, inhibition of infection of human T-lymphoblastoid cells by HIV-1RF (HIV-1RF [1]): approximately 4 ng/mL

Compound: CO[C@H](c1ccc(O)cc1)C1NC(=O)[C@H](CCC(N)=O)N(C)C(=O)C(CC(C)C)NC(=O)[C@@H](CCCNC(=N)N)NC(=O)C([C@@H](C)O)NC(=O)C(NC(=O)C(NC(=O)[C@H](O)[C@H](O)[C@H](CCCNC(=N)N)NC(=O)[C@H](CC(N)=O)NC(=O)[C@H](C)[C@H](O)[C@H](C)CC(C)C)[C@@H](C)[C@@H](C)C(N)=O)[C@@H](C)OC(=O)[C@@H]2CCCCN2C(=O)[C@@H](CC(N)=O)CC1=O (stereo partly drawn) [neamphamide A] ({Heptanoyl(3R-OH,2R,4R,6-Me3)}-N[γ4hArg(2R,3R-(OH)2)][X4][ξThr(3R)(O-yl)][ξThr(3R)][dR][ξL][NMeQ][X5][Pip]; ester 4-C)
- pEC50 (HIV-1RF [3]): 7.55

Compound: CCO[C@H](C(N)=O)[C@@H]1NC(=O)[C@H](CCC(N)=O)N(C)C(=O)[C@H](CC(C)C)NC(=O)[C@@H](CCCCN)NC(=O)[C@@H]([C@@H](C)O)NC(=O)[C@H](NC(=O)[C@@H](NC(=O)[C@H](O)[C@H](O)[C@H](CCC(N)=O)NC(=O)[C@H](NC(=O)[C@H](C)[C@H](O)[C@H](C)CC(C)C)[C@H](O)C(=O)O)[C@@H](C)[C@@H](C)C(N)=O)[C@@H]([C@H](C)C(C)C)OC(=O)[C@@H]2CCCCN2C(=O)[C@@H](CC(=O)O)NC1=O [Pipecolidepsin B] ({Heptanoyl(3R-OH,2R,4R,6-Me3)}-[dAsp(3S-OH)][X1][Gln(3S,4R-Me2)][dNle(3R-OH,4R,5-Me2)][d(aThr)][dK]L[NMeQ][Asn(3S-OEt)][dD][Pip]; ester 4-C)
- GI50 (MDA-MB-231): 0.0233 µM
- LC50 (50% net cell killing) (MDA-MB-231): 0.209 µM
- TGI (MDA-MB-231): 6.58E−08 Molar
- GI50 (HT29; HT29, 72 hours treatment): 0.0144 µM
- CC50 (HT29; HT29, 72 hours treatment): 0.0658 µM
- TGI (HT29; HT29, 72 hours treatment): 2.69E−08 Molar
- GI50 (A549): 0.0353 µM
- CC50 (A549): 0.353 µM
- TGI (A549): 1.08E−07 Molar

Compound: CCO[C@H](C(N)=O)[C@@H]1NC(=O)[C@H](CCC(N)=O)N(C)C(=O)[C@H](CC(C)C)NC(=O)[C@@H](CCCCN)NC(=O)[C@@H]([C@@H](C)O)NC(=O)[C@H](NC(=O)[C@@H](NC(=O)[C@H](O)[C@H](O)[C@H](CCC(N)=O)NC(=O)[C@@H](CC(=O)O)NC(=O)[C@H](C)[C@H](O)[C@H](C)CC(C)C)[C@@H](C)[C@@H](C)C(N)=O)[C@@H]([C@H](C)C(C)C)OC(=O)[C@@H]2CCCCN2C(=O)[C@@H](CC(=O)O)NC1=O [Pipecolidepsin A] ({Heptanoyl(3R-OH,2R,4R,6-Me3)}-[dD][X1][Gln(3S,4R-Me2)][dNle(3R-OH,4R,5-Me2)][d(aThr)][dK]L[NMeQ][Asn(3S-OEt)][dD][Pip]; ester 4-C)
- GI50 (MDA-MB-231): 0.725 µM
- LC50 (50% net cell killing) (MDA-MB-231): 1.75 µM
- TGI (MDA-MB-231): 1.15E−06 Molar
- GI50 (HT29; HT29, 72 hours treatment): 1.15 µM
- CC50 (HT29; HT29, 72 hours treatment): 1.57 µM
- TGI (HT29; HT29, 72 hours treatment): 1.33E−06 Molar
- GI50 (A549): 0.604 µM
- CC50 (A549): 1.39 µM
- TGI (A549): 9.06E−07 Molar

Compound: CC[C@@H](C)C[C@@H](C)[C@@H](O)[C@@H](C)C(=O)N[C@H](CCCN)C(=O)N[C@@H](CCC(=O)O)[C@@H](O)[C@@H](O)C(=O)N[C@H](C(=O)N[C@H]1C(=O)N[C@H](CO)C(=O)N[C@H](CCCN)C(=O)N[C@@H](CC(C)C)C(=O)N(C)[C@@H](CCC(N)=O)C(=O)N[C@@H]([C@@H](C)OC)C(=O)N[C@H](CC(=O)O)C(=O)N2CCCC[C@H]2C(=O)O[C@@H]1[C@H](C)C(C)C)[C@@H](C)[C@@H](C)C(N)=O [homophymine A] (X6-[dOrn][X7][Gln(3S,4R-Me2)][dNle(3R-OH,4R,5-Me2)][dS][dOrn]L[NMeQ]T(Me)[dD][Pip]; ester 4-C)
- pIC50 (HIV-1): 7.12

Compound: CCC(C)CC1NC(=O)C(CCCN)NC(=O)C(C(C)O)NC(=O)C(NC(=O)C(NC(=O)C(O)C(O)C(NC(=O)CNC(=O)C(C)C(O)C(C)CC(C)CC(C)C)C(C)O)C(C)C(C)C(N)=O)C(C)OC(=O)C2CCCCN2C(=O)C(CC(N)=O)NC(=O)C(C(OC)C(N)=O)NC(=O)C(CCC(N)=O)N(C)C1=O (centres unmarked) [Pipecolidepsin C] (X2-G[X3][ξGln(3,4-Me2)]TT[Orn][ξNle(4ξ-Me)][NMeQ][ξAsn(3ξ-OMe)]N[Pip]; ester 4-C; configuration not given here)
- GI50 (MDA-MB-231; Homo sapiens): 0.48 µM
- LC50 (50% net cell killing) (MDA-MB-231; Homo sapiens): 0.907 µM
- TGI (MDA-MB-231): 6.48E−07 Molar
- TGI (HT29; HT29, 72 hours treatment): 8.43E−07 Molar
- GI50 (HT29; [4]): 0.648 µM
- CC50 (HT29; [4]): 1.04 µM
- TGI (A549): 5.25E−07 Molar
- GI50 (A549; Homo sapiens): 0.428 µM
- CC50 (A549; Homo sapiens): 0.648 µM
